pIC50: −log10 of the molar value.

The pIC50 is the IC50 on a negative log10 scale, so that one unit is a factor of ten. The solubility is how much of the substance goes into solution per volume. Low readings indicate little dissolved substance, high ones much dissolved substance.

Sequence of Poly [ADP-ribose] polymerase 1 (Bos taurus, UniProt P18493) (P18493 whole entry): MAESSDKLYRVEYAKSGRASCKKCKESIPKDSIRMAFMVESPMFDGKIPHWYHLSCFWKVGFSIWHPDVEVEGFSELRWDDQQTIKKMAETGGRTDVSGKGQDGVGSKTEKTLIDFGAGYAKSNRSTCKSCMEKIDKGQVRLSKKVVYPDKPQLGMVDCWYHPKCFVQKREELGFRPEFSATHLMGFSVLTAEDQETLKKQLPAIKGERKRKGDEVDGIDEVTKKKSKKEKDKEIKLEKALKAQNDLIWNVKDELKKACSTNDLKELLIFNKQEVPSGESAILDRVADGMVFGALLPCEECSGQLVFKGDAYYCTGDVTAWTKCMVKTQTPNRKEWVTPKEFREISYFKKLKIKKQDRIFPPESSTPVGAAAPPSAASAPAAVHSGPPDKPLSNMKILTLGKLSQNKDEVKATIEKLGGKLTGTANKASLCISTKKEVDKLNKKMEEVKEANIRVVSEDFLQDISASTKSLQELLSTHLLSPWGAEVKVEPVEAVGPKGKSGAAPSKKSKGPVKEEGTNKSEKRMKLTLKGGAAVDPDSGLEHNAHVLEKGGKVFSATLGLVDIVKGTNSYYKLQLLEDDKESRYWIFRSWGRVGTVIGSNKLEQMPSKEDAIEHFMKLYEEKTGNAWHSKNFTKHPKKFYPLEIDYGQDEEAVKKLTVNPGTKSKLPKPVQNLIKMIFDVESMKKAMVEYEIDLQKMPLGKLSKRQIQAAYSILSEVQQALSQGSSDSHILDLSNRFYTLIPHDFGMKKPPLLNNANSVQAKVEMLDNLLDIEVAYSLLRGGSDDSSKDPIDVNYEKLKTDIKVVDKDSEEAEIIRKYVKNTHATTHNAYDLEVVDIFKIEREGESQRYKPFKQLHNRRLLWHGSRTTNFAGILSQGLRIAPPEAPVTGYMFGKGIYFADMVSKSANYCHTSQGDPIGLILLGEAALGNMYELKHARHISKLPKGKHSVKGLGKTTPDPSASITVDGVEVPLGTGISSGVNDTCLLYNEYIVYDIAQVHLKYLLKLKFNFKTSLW

For one series, the target named is T1, Poly [ADP-ribose] polymerase 1 (Homo sapiens, UniProt P09874). Description: Inhibition of PARP-1 (unknown origin) in broken nuclear preparation.
T1 sequence (P09874 whole entry): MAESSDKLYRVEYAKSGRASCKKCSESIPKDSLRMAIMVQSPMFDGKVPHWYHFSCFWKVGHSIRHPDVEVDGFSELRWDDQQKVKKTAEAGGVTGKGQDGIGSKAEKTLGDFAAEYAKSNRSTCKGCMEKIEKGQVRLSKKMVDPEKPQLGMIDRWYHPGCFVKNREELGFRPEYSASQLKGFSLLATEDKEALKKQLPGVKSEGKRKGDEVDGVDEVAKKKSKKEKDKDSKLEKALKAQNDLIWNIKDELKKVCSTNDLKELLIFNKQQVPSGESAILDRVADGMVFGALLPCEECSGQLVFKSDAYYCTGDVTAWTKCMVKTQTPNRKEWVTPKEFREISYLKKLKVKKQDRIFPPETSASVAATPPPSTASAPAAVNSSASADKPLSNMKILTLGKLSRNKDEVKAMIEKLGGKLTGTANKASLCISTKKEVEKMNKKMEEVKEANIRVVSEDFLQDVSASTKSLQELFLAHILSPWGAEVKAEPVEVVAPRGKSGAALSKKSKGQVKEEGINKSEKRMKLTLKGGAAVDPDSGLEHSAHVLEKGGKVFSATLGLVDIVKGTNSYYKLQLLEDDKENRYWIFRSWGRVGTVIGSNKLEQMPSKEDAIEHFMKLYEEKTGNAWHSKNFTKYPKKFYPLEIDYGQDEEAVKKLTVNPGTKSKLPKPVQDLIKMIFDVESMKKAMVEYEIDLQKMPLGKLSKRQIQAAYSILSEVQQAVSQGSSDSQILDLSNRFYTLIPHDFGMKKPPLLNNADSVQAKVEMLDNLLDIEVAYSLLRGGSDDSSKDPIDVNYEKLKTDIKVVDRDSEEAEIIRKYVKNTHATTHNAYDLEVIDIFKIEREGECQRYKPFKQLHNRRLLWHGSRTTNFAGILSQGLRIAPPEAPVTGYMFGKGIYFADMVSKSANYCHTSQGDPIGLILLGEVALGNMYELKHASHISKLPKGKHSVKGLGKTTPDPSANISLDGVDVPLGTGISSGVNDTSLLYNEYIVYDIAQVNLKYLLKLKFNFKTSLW
On to `Nc1cccc2c(=O)[nH]ccc12`, for which the pIC50 is 6.52.

The target of the next series is T1, Poly [ADP-ribose] polymerase 1. Description: Inhibition of human PARP-1 assessed as synthesis of [3H]-ADP-ribose polymers from [3H]-NAD+ by scintillation proximity assay. On the technique in general: Scintillation proximity formats need no separation of bound from free tracer.
For `Nc1cccc2c(=O)[nH]ccc12`, the pIC50 was 5.80.

Tested on in a further series: not listed separately
As to the kind of experiment: Solubility of the compound in water. The class given is physicochemical.
As for `Cl.Nc1cccc2c(=O)[nH]c(-c3ccc(Cl)cc3)cc12`, the solubility was over 30 mM. The compound `Cc1ccc(-c2cc3c(N)cccc3c(=O)[nH]2)cc1.Cl` came in with a solubility of over 30 mM. On the same count and under the same terms, under `CCc1cc2c(N)cccc2c(=O)[nH]1.Cl` stands over 30 mM; under `CCCCCc1cc2c(N)cccc2c(=O)[nH]1.Cl`, over 30 mM; under `COc1ccc(-c2cc3c(N)cccc3c(=O)[nH]2)cc1.Cl`, over 30 mM. Consider `Cc1cc2c(N)cccc2c(=O)[nH]1.Cl`, for which the solubility was over 30 mM. Still for that read-out and setting: the value for `Cl.Nc1cccc2c(=O)[nH]c(Cc3ccccc3)cc12` was over 30 mM. For the compound `Cl.Nc1cccc2c(=O)[nH]c(-c3cccs3)cc12`, the solubility was over 30 mM.

In turn, `CC(C)Cc1cc2c(N)cccc2c(=O)[nH]1.Cl` gave a solubility of over 30 mM. On the same count and under the same terms, under `Cl.Nc1cccc2c(=O)[nH]c(-c3ccc(C(F)(F)F)cc3)cc12` stands over 30 mM; under `Cl.Nc1cccc2c(=O)[nH]c(-c3ccccc3)cc12`, over 30 mM.

The next series deals with Poly [ADP-ribose] polymerase 2 (Mus musculus, UniProt O88554). As to the kind of experiment: Inhibition of mouse PARP-2.
Sequence of Poly [ADP-ribose] polymerase 2 (O88554 whole entry): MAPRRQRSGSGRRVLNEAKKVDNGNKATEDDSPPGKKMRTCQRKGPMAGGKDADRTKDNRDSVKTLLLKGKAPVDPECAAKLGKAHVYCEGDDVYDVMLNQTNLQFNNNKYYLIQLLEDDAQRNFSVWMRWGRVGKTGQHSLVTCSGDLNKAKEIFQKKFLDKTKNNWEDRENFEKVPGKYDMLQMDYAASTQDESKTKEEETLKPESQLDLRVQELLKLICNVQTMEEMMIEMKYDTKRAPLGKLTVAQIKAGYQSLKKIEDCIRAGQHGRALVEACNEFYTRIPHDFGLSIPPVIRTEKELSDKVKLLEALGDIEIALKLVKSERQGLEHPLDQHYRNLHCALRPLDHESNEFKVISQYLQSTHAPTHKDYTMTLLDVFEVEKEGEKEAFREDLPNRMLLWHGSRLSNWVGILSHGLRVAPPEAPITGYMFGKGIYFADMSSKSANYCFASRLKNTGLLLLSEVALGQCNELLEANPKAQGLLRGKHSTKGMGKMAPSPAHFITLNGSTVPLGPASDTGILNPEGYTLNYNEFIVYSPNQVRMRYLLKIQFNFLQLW
The compound `Nc1cccc2c(=O)[nH]c(-c3ccc(Cl)cc3)cc12` had a pIC50 of 6.80.

On to `COc1ccc(-c2cc3c(N)cccc3c(=O)[nH]2)cc1`, for which the pIC50 is 6.14. The same measure, in the same setting: the value for `Cc1ccc(-c2cc3c(N)cccc3c(=O)[nH]2)cc1` was 6.92; that for `CCc1cc2c(N)cccc2c(=O)[nH]1` was 6.08; that for `Nc1cccc2c(=O)[nH]c(-c3ccc(C(F)(F)F)cc3)cc12` was 6.77.

Regarding `Nc1cccc2c(=O)[nH]c(-c3ccccc3)cc12`, the pIC50 was 6.32. Same read-out and setting: the value for `Cc1cc2c(N)cccc2c(=O)[nH]1` was 6.59.

A further series concerns the target Poly [ADP-ribose] polymerase 1 (Bos taurus, UniProt P18493). As to the kind of experiment: Inhibition of calf thymus PARP-1.
`Nc1cccc2c(=O)[nH]ccc12` had a pIC50 of 6.60.

(Values after ChEMBL document CHEMBL2413011, “One-pot tandem Hurtley-retro-Claisen-cyclisation reactions in the synthesis of 3-substituted analogues of 5-aminoisoquinolin-1-one (5-AIQ), a water-soluble inhibitor of PARPs” (Bioorg Med Chem, 2013).)
